Source: article PMC3170524 (Physiological research / Academia Scientiarum Bohemoslovaca, 2010)
Changes are numbered by the printed parent chain.

How the values were obtained:
Test in all cases: whole-cell patch clamp, peak current dose-response
Assay type in all cases: cell-based
rat P2X4R [1] = target: T1, rat P2X4R (Rattus norvegicus, UniProt P51577, C126T/C149T)
T1 sequence (P51577 1-388 C126T/C149T): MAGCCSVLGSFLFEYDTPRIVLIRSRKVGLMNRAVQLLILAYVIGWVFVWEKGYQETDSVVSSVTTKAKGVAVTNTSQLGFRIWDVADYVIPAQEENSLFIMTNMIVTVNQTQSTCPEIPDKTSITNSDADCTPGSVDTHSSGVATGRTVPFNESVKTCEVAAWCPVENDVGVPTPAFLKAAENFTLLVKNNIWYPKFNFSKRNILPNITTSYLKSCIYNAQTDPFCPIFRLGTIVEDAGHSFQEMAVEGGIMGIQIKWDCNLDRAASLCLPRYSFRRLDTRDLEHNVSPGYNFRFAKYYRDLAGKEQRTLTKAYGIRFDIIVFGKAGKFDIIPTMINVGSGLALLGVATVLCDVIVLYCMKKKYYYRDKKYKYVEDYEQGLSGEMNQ

rat P2X4R [2] = target: T2, rat P2X4R (Rattus norvegicus, UniProt P51577, C132T)
T2 sequence (P51577 1-388 C132T): T1 sequence (P51577 1-388 C126T/C149T) with T126C, C132T, T149C

rat P2X4R [3] = target: T3, rat P2X4R (Rattus norvegicus, UniProt P51577, C270T)
T3 sequence (P51577 1-388 C270T): T1 sequence (P51577 1-388 C126T/C149T) with T126C, T149C, C270T

rat P2X4R [4] = target: T4, rat P2X4R (Rattus norvegicus, UniProt P51577, C165T)
T4 sequence (P51577 1-388 C165T): T1 sequence (P51577 1-388 C126T/C149T) with T126C, T149C, C165T

rat P2X4R [5] = target: T5, rat P2X4R (Rattus norvegicus, UniProt P51577)
T5 sequence (P51577 1-388): T1 sequence (P51577 1-388 C126T/C149T) with T126C, T149C

rat P2X4R [6] = target: T6, rat P2X4R (Rattus norvegicus, UniProt P51577, C126A)
T6 sequence (P51577 1-388 C126A): T1 sequence (P51577 1-388 C126T/C149T) with T126A, T149C

rat P2X4R [7] = target: T7, rat P2X4R (Rattus norvegicus, UniProt P51577, C159A)
T7 sequence (P51577 1-388 C159A): T1 sequence (P51577 1-388 C126T/C149T) with T126C, T149C, C159A

Question: With `Nc1ncnc2c1ncn2[C@@H]1O[C@H](COP(=O)(O)OP(=O)(O)OP(=O)(O)O)[C@@H](O)[C@H]1O` [ATP] as the compound, how does the EC50 (rat P2X4R [1]) read?
Answer: 65 ± 24 µM

Question: What about the EC50 (rat P2X4R [2]) of the same compound?
Answer: 8.2 ± 2.1 µM

Question: What about the EC50 (rat P2X4R [3]) of the same compound?
Answer: 3.4 ± 1.8 µM

Question: And the EC50 (rat P2X4R [4])?
Answer: 45 ± 3.8 µM

Question: What about the EC50 (rat P2X4R [5]) of the same compound?
Answer: 4.6 ± 0.5 µM

Question: What about the EC50 (rat P2X4R [6]) of the same compound?
Answer: 24 ± 5.6 µM

Question: What about the EC50 (rat P2X4R [7]) of the same compound?
Answer: 5.1 ± 1.4 µM
